Reference: PubChem BioAssay AID2060623 (Molecular Pharmacology Branch, DTP, NCI, 2025)

System: 227483-062-R1-J1-PDC complex spheroids with HUVEC/MSC, viability
Test: Anticancer human tumor 227483-062-R1-J1-PDC patient-derived pancreatic carcinoma cell line growth inhibition [CLK]
Conditions: for IC50: curve of first compound; for viability, T/C: stronger effect = lower value
Text: A high-throughput screen of multi-cell type tumor spheroids was designed to identify active combinations of […] and targeted small molecules. Complex spheroids include a stromal component modeled by human endothelial cells (HUVEC) and fibroblasts modeled by human mesenchymal stem cells (MSCs). The concentration ranges selected for each drug and investigational agent were based upon clinically achievable concentrations if the clinical Cmax of the agent was known.
Compounds. The drugs and investigational agents: cirtuvivint (SM08502; NSC835563), CC-671 (NSC850746), vemurafenib (NSC761431), tapotoclax (NSC804041), sotorasib (NSC818433), adagrasib (NSC831453), MRTX-1133 (NSC836407), BAY2416964 (NSC825713), copanlisib (NSC816437), inavolisib (NSC800729), abemaciclib (NSC768073), osimertinib (NSC779217), entinostat (NSC756642), eltanexor (KPT-8602, NSC794443), venetoclax (NSC766270), ceralasertib (NSC777638), bortezomib (NSC756655), olaparib (NSC753686), talazoparib (NSC767125), alisertib (NSC759677), peposertib (NSC802822), gemcitabine (NSC613327), 5-fluorouracil (NSC19893), SN-38 (NSC673596), oxaliplatin (NSC266046), paclitaxel (NSC125973), and doxorubicin (NSC123127), were obtained from the National Cancer Institute (NCI) Developmental Therapeutics Program Chemical Repository. The FDA-approved anticancer drug set is available from the Developmental Therapeutics Program at https://dtp.cancer.gov/organization/dscb/obtaining/available plates.htm. […] The stock solutions were prepared in dimethyl sulfoxide (DMSO, Sigma-Aldrich, St. Louis, MO, cat. D2650), except for the platinum complexes which were prepared in saline (Quality Biological, Gaithersburg, MD, cat. 114-055-101), at 800-fold the tested concentration and stored at -70 degrees C prior to their use. All drugs and investigational agents were tested over a range starting from a high concentration at or near the clinical Cmax and decreasing in half-log increments. If the clinical Cmax for an agent had not been determined, the highest concentration tested was 10 microM.
Cell Culture. All cells were maintained in an incubator at 37 degrees C and 5% CO2 with 95% humidity. The PDC lines were cultured according to standard operating procedures established by the NCI PDMR. Briefly, all PDCs were thawed and cultured in Matrigel-coated flasks prepared with a working solution of 1X Ham's F-12 nutrient mix, without supplementation (Invitrogen, Waltham, MA, cat. 11765054), 100 U/mL penicillin-streptomycin (Invitrogen, cat. 15140122), and 2.5% Matrigel (Corning Inc., Corning, NY, cat. 354248) for the first three passages. The 947758-054-R-J2-PDC line was cultured in 6B/Colon 1A media, which includes advanced DMEM/F-12 (Thermo Fisher Scientific, cat. 12634028), 10 mM HEPES (Thermo Fisher Scientific, cat. 15630080), 1X GlutaMAX supplement (Thermo Fisher Scientific, cat. 35050061), 0.1 mg/mL primocin (InvivoGen, cat. ant-pm-2), 10% defined fetal bovine serum, heat inactivated (HyClone Laboratories Inc., cat. SH30070.03HI), 1.25 mM N-Acetyl-L-cysteine (Sigma-Aldrich, cat. A9165), 10 mM nicotinamide (Sigma-Aldrich, cat. N0636), 1X B-27 supplement (Thermo Fisher Scientific, cat. 17504044), 1X N-2 supplement (Thermo Fisher Scientific, cat. 17502048), and 10 microM Y-27632 dihydrochloride (Tocris Bioscience, cat. 1254). The 876862-298-R-J1-PDC was cultured in 6E media, which includes all 6B/Colon 1A media components plus 50% L-WRN conditioned media (ATCC, cat. CRL-3276), 50 ng/mL recombinant human EGF recombinant protein (hEGF; Thermo Fisher Scientific, cat. PHG0311), 10 ng/mL recombinant human fibroblast growth factor 10 (hGFG-10; PeproTech, cat. 100-26), 1 ng/mL recombinant human fibroblast growth factor 2 (hFGF-2; PeproTech, cat. 100-18B), and 1 µM prostaglandin E2 (PGE2; Tocris, cat. 2296). The 227483-062-R1-J1-PDC line was cultured in Panc media, containing all 6E components except hFGF-2, with the addition of 500 nM SB-431542 (Selleckchem, cat. S1067) and 10 nM gastrin (Tocris, cat. 3006). […]

[1] = second compound 0.0316 µM, first compound 0.0316 µM
[2] = second compound 0.0316 µM, first compound 0.1 µM
[3] = second compound 0.0316 µM, first compound 0.316 µM
[4] = second compound 0.0316 µM, first compound 1 µM
[5] = second compound 0.0316 µM, first compound 3.16 µM
[6] = second compound 0.0316 µM, first compound 10 µM
[7] = second compound 0.1 µM, first compound 0.0316 µM
[8] = second compound 0.1 µM, first compound 0.1 µM
[9] = second compound 0.1 µM, first compound 0.316 µM
[10] = second compound 0.1 µM, first compound 1 µM
[11] = second compound 0.1 µM, first compound 3.16 µM
[12] = second compound 0.1 µM, first compound 10 µM
[13] = second compound 0.316 µM, first compound 0.0316 µM
[14] = second compound 0.316 µM, first compound 0.1 µM
[15] = second compound 0.316 µM, first compound 0.316 µM
[16] = second compound 0.316 µM, first compound 1 µM
[17] = second compound 0.316 µM, first compound 3.16 µM
[18] = second compound 0.316 µM, first compound 10 µM
[19] = second compound 1 µM, first compound 0.0316 µM
[20] = second compound 1 µM, first compound 0.1 µM
[21] = second compound 1 µM, first compound 0.316 µM
[22] = second compound 1 µM, first compound 1 µM
[23] = second compound 1 µM, first compound 3.16 µM
[24] = second compound 1 µM, first compound 10 µM
[25] = second compound 3.16 µM, first compound 0.0316 µM
[26] = second compound 3.16 µM, first compound 0.1 µM
[27] = second compound 3.16 µM, first compound 0.316 µM
[28] = second compound 3.16 µM, first compound 1 µM
[29] = second compound 3.16 µM, first compound 3.16 µM
[30] = second compound 3.16 µM, first compound 10 µM
[31] = second compound 10 µM, first compound 0.0316 µM
[32] = second compound 10 µM, first compound 0.1 µM
[33] = second compound 10 µM, first compound 0.316 µM
[34] = second compound 10 µM, first compound 1 µM
[35] = second compound 10 µM, first compound 3.16 µM
[36] = second compound 10 µM, first compound 10 µM
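Also: spheroids exposed to compounds for seven days before readout.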
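For viability, T/C in this document: percent of DMSO vehicle control luminescence as 100% viability.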

Nc1ccn(C2OC(CO)C(O)C2(F)F)c(=O)n1 (centres undefined) + CN1CCN(c2cc(C(=O)Nc3cc4cc(-c5cnn(C)c5)ccc4cn3)ccn2)CC1
IC50 (second compound 0.0316 µM): 72.5 nM
IC50 (second compound 0.1 µM): < 31.6 nM
IC50 (second compound 0.316 µM): < 31.6 nM
IC50 (second compound 1 µM): < 31.6 nM
IC50 (second compound 3.16 µM): < 31.6 nM
IC50 (second compound 10 µM): < 31.6 nM
viability, T/C [1]: 76%
viability, T/C [2]: 39%
viability, T/C [3]: 32.1%
viability, T/C [4]: 35.6%
viability, T/C [5]: 27.6%
viability, T/C [6]: 24.1%
viability, T/C [7]: 36.7%
viability, T/C [8]: 25.1%
viability, T/C [9]: 24.1%
viability, T/C [10]: 21%
viability, T/C [11]: 22.5%
viability, T/C [12]: 15%
viability, T/C [13]: 4.9%
viability, T/C [14]: 3.69%
viability, T/C [15]: 3.08%
viability, T/C [16]: 2.47%
viability, T/C [17]: 2.75%
viability, T/C [18]: 1.97%
viability, T/C [19]: 1.05%
viability, T/C [20]: 1.34%
viability, T/C [21]: 2.72%
viability, T/C [22]: 2.08%
viability, T/C [23]: 1.09%
viability, T/C [24]: 1.14%
viability, T/C [25]: 2.12%
viability, T/C [26]: 2.2%
viability, T/C [27]: 3.37%
viability, T/C [28]: 1.88%
viability, T/C [29]: 1.71%
viability, T/C [30]: 1.79%
viability, T/C [31]: 0.96%
viability, T/C [32]: 0.85%
viability, T/C [33]: 1.06%
viability, T/C [34]: 1.19%
viability, T/C [35]: 0.9%
viability, T/C [36]: 0.79%

O=C(c1cc(Cc2n[nH]c(=O)c3ccccc23)ccc1F)N1CCN(C(=O)C2CC2)CC1 + CN1CCN(c2cc(C(=O)Nc3cc4cc(-c5cnn(C)c5)ccc4cn3)ccn2)CC1
IC50 (second compound 0.0316 µM): > 10000 nM
IC50 (second compound 0.1 µM): > 10000 nM
IC50 (second compound 0.316 µM): < 31.6 nM
IC50 (second compound 1 µM): < 31.6 nM
IC50 (second compound 3.16 µM): < 31.6 nM
IC50 (second compound 10 µM): < 31.6 nM
viability, T/C [1]: 94.6%
viability, T/C [2]: 105%
viability, T/C [3]: 129%
viability, T/C [4]: 100%
viability, T/C [5]: 121%
viability, T/C [6]: 99.7%
viability, T/C [7]: 54.3%
viability, T/C [8]: 87.4%
viability, T/C [9]: 60.1%
viability, T/C [10]: 81.2%
viability, T/C [11]: 84.4%
viability, T/C [12]: 78.9%
viability, T/C [13]: 6.03%
viability, T/C [14]: 6.34%
viability, T/C [15]: 4.67%
viability, T/C [16]: 4.91%
viability, T/C [17]: 5.89%
viability, T/C [18]: 5.77%
viability, T/C [19]: 2.77%
viability, T/C [20]: 1.94%
viability, T/C [21]: 1.82%
viability, T/C [22]: 2.7%
viability, T/C [23]: 2.26%
viability, T/C [24]: 1.69%
viability, T/C [25]: 7.27%
viability, T/C [26]: 3.78%
viability, T/C [27]: 4.39%
viability, T/C [28]: 2.51%
viability, T/C [29]: 4.57%
viability, T/C [30]: 3.8%
viability, T/C [31]: 4.72%
viability, T/C [32]: 2.86%
viability, T/C [33]: 2.33%
viability, T/C [34]: 2.8%
viability, T/C [35]: 2.43%
viability, T/C [36]: 2.26%
